These results are taken from patent US11247990B1, “Bicyclic fused pyridine compounds as inhibitors of TAM kinases” (ARRAY BIOPHARMA INC., priority 2017, dated 2022).

For experiment [1], the target named is His-tagged recombinant human AXL cytoplasmic domain (Homo sapiens (Human), UniProt P30530). As to the kind of experiment: AXL Enzyme Assay (LanthaScreen Eu Kinase Binding, TR-FRET). The following applies: averaged IC50. As to the method:
Compounds of Formula I were screened for their ability to inhibit AXL kinase using Invitrogen's LanthaScreen™ Eu Kinase Binding technology. […] After a 60-minute incubation at 22° C., the reaction was measured using a PerkinElmer EnVision multimode plate reader via TR-FRET dual wavelength detection, and the percent of control (POC) was calculated using a ratiometric emission factor. […] The POC values are fit to a 4 parameter logistic curve and the IC50 value is point where the curve crosses 50 POC.
A general note: In TR-FRET formats the signal depends on donor and acceptor labels being close together.

The target in experiment [2] is His-tagged recombinant human MER cytoplasmic domain (Homo sapiens (Human), UniProt Q12866). The experiment is described as follows: MER Enzyme Assay (LanthaScreen Eu Kinase Binding, TR-FRET). The settings on record: averaged IC50. The method in brief:
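LanthaScreen Eu kinase binding (tracer displacement) assay with His-tagged human MER cytoplasmic domain, 60 min incubation at 22 °C. TR-FRET dual-wavelength emission ratio converted to percent of control; IC50 is where the 4-parameter logistic fit crosses 50 POC.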

Molecules are shown by their SMILES.

Chain of His-tagged recombinant human MER cytoplasmic domain (Q12866 527-999): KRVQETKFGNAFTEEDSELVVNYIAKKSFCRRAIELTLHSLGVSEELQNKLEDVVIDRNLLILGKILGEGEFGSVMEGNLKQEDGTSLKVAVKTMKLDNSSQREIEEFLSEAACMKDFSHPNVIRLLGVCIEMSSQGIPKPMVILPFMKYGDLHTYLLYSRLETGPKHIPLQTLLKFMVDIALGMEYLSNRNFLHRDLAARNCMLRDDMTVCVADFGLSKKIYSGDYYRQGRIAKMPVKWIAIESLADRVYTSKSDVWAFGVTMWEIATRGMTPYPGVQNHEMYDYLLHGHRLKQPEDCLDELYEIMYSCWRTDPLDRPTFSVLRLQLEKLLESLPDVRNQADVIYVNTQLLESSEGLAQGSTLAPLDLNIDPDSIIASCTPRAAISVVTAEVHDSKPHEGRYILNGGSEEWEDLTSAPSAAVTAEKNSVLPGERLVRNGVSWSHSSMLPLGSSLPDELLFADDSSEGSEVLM
Chain of His-tagged recombinant human AXL cytoplasmic domain (P30530 473-894): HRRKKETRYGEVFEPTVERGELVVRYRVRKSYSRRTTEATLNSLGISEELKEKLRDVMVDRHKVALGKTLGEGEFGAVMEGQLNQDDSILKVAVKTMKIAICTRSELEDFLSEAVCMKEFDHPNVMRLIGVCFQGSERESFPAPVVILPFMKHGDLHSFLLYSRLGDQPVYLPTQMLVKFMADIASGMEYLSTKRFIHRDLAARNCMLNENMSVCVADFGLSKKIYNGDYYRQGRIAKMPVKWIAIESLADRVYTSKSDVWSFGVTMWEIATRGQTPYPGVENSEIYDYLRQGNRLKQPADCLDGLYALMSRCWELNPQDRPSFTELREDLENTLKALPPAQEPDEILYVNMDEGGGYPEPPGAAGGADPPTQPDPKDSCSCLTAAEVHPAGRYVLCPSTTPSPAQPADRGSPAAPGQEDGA

Broadly, the IC50 is the concentration that gives 50% inhibition. `CNc1cc2c(cn1)c(-c1cnn(C)c1)nn2[C@H]1CC[C@@H](Oc2cccnc2C)CC1` [Example 135, N-methyl-3-(1-methyl-1H-pyrazol-4-yl)-1-((1s,4s)-4-((2-methylpyridin-3-yl)oxy)cyclohexyl)-1H-pyrazolo[4,3-c]pyridin-6-amine]: the IC50 in experiment [1] and in experiment [2] was less than 10 nM each time.

Regarding `CCc1ncccc1O[C@H]1CC[C@@H](n2nc(-c3cnn(C)c3)c3cnc(NC)cc32)CC1` [Example 145, 1-((1s,4s)-4-((2-ethylpyridin-3-yl)oxy)cyclohexyl)-N-methyl-3-(1-methyl-1H-pyrazol-4-yl)-1H-pyrazolo[4,3-c]pyridin-6-amine], the IC50 in experiment [1] and in experiment [2] was less than 10 nM in each case.

On to `CNc1cc2c(cn1)c(-c1cnn(C)c1)nn2[C@H]1CC[C@@H](Oc2cccnc2F)CC1` [Example 146, 1-((1s,4s)-4-((2-fluoropyridin-3-yl)oxy)cyclohexyl)-N-methyl-3-(1-methyl-1H-pyrazol-4-yl)-1H-pyrazolo[4,3-c]pyridin-6-amine], for which the IC50 in experiment [1] and in experiment [2] was less than 10 nM in each case.

Take `CNc1cc2c(cn1)c(-c1cnn(C)c1)nn2[C@H]1CC[C@@H](Oc2nccnc2C)CC1` [Example 150, N-methyl-3-(1-methyl-1H-pyrazol-4-yl)-1-((1s,4s)-4-((3-methylpyrazin-2-yl)oxy)cyclohexyl)-1H-pyrazolo[4,3-c]pyridin-6-amine]: the IC50 in experiment [1] and in experiment [2] was less than 10 nM throughout.

Turning to `CNc1cc2c(cn1)c(-c1cnn(C)c1)nn2[C@H]1CC[C@@H](Oc2cc(C(F)(F)F)ccn2)CC1` [Example 170, N-methyl-3-(1-methyl-1H-pyrazol-4-yl)-1-((1s,4s)-4-((4-(trifluoromethyl)pyridin-2-yl)oxy)cyclohexyl)-1H-pyrazolo[4,3-c]pyridin-6-amine], the IC50 in experiment [1] and in experiment [2] was less than 10 nM throughout.

In the case of `CNc1cc2c(cn1)c(-c1cnn(C(C)(C)C#N)c1)nn2[C@H]1CC[C@@H](Oc2cccnc2C)CC1` [Example 202, 2-methyl-2-(4-(6-(methylamino)-1-((1s,4s)-4-((2-methylpyridin-3-yl)oxy)cyclohexyl)-1H-pyrazolo[4,3-c]pyridin-3-yl)-1H-pyrazol-1-yl)propanenitrile], the IC50 in experiment [1] and in experiment [2] was less than 10 nM each time.

Take `CNc1cc2c(cn1)c(-c1cnn(C(C)(C)CO)c1)nn2[C@H]1CC[C@@H](Oc2nccnc2C)CC1` [Example 213, 2-methyl-2-(4-(6-(methylamino)-1-((1s,4s)-4-((3-methylpyrazin-2-yl)oxy)cyclohexyl)-1H-pyrazolo[4,3-c]pyridin-3-yl)-1H-pyrazol-1-yl)propan-1-ol]: the IC50 in experiment [1] and in experiment [2] was less than 10 nM each time.

Turning to `CNc1cc2c(cn1)c(-c1ccc(CN3CCN(C)CC3)cc1)nn2[C@H]1CC[C@@H](Oc2cnn(C)c2)CC1` [Example 232, N-methyl-1-((1s,4s)-4-((1-methyl-1H-pyrazol-4-yl)oxy)cyclohexyl)-3-(4-((4-methylpiperazin-1-yl)methyl)phenyl)-1H-pyrazolo[4,3-c]pyridin-6-amine], the IC50 in experiment [1] and in experiment [2] was less than 10 nM each time.

As to `CCNc1cc2c(cn1)c(-c1cnc(=O)n(C)c1)nn2C1CCC(Oc2nccc(C(F)(F)F)c2F)CC1` (centres unmarked) [Example 256, 5-(6-(ethylamino)-1-((1s,4s)-4-((3-fluoro-4-(trifluoromethyl)pyridin-2-yl)oxy)cyclohexyl)-1H-pyrazolo[4,3-c]pyridin-3-yl)-1-methylpyrimidin-2(1H)-one], the IC50 in experiment [1] and in experiment [2] was less than 10 nM in each case.

`CCNc1cc2c(cn1)c(-c1cn(C)c(=O)cn1)nn2[C@H]1CC[C@@H](Oc2nccc(C(F)(F)F)c2F)CC1` [Example 257, 5-(6-(ethylamino)-1-((1s,4s)-4-((3-fluoro-4-(trifluoromethyl)pyridin-2-yl)oxy)cyclohexyl)-1H-pyrazolo[4,3-c]pyridin-3-yl)-1-methylpyrazin-2(1H)-one]: the IC50 in experiment [1] and in experiment [2] was less than 10 nM in each case.
